Results from patent publication US20240101540A1, “TARGETED PROTEIN DEGRADATION OF PARP14 FOR USE IN THERAPY” (Ribon Therapeutics, Inc., priority 2022, published 2024).
Where a name gives a salt, the structure may show the parent alone.

Biological target: T1, HiBiT tagged PARP14 (Homo sapiens, UniProt Q460N5)
T1 construct: engineered to contain a HiBiT tag on both alleles of the PARP14 gene; endogenous in cells; host or cells: Jurkat cells stably transfected with LgBiT (Promega), PARP14 locus edited by CRISPR/Cas9
T1 sequence (Q460N5 whole entry): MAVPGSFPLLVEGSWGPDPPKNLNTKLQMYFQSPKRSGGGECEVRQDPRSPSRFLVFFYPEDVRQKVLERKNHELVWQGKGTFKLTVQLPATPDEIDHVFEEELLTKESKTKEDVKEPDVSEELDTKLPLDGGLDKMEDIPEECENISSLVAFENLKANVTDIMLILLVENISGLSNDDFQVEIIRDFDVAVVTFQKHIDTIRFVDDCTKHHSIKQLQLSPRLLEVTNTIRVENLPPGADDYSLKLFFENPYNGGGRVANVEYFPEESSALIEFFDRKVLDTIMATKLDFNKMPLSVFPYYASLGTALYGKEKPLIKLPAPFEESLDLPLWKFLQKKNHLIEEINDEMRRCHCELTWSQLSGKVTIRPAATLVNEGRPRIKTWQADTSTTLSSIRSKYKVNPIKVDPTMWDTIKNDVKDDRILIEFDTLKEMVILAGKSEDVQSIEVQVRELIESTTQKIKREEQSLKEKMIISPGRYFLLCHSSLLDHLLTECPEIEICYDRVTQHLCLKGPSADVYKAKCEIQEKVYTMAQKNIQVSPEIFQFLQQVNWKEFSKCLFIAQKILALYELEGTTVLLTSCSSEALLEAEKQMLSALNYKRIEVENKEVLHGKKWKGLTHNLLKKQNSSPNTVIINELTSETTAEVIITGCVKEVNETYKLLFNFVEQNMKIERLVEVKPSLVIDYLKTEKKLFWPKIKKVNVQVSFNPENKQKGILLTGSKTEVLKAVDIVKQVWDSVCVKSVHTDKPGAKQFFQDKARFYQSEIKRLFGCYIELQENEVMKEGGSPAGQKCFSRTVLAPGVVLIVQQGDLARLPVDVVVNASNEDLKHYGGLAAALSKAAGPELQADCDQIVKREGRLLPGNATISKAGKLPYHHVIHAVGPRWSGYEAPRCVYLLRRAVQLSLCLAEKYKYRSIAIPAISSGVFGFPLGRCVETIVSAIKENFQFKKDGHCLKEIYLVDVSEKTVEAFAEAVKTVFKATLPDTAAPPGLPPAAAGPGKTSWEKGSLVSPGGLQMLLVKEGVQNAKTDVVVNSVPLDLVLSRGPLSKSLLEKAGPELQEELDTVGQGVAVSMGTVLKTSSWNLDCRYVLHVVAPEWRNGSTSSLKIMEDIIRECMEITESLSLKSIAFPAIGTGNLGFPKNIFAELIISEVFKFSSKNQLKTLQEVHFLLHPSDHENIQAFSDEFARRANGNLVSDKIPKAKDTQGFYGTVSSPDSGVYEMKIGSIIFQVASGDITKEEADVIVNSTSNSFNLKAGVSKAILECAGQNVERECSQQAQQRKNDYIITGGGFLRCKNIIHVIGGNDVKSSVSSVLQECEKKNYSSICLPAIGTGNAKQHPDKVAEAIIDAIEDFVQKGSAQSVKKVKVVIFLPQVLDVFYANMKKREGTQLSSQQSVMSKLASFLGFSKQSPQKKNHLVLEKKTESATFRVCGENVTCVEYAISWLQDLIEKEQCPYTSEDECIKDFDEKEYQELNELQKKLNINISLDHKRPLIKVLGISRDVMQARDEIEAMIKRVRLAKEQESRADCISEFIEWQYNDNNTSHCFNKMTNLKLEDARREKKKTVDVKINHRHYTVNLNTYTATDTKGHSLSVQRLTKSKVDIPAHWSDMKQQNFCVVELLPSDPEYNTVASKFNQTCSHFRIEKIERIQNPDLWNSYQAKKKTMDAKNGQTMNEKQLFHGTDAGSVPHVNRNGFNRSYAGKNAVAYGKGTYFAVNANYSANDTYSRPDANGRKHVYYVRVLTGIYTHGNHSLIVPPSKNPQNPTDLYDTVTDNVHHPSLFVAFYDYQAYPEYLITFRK
Assay: HiBiT assay for the degradation of PARP14 (HiBiT tagged PARP14 in LgBiT expressing Jurkat cells, 2 or 24 hours)
Format: cell-based
Details: Assay B (Example B): HiBiT tagged PARP14 degradation in LgBiT expressing Jurkat cells, read-out: DC50
Procedure: Jurkat cells stably transfected with LgBiT (Promega) were engineered to contain a HiBiT tag on both alleles of the PARP14 gene (Genbank Accession Number: NM_017554) via CRISPR/Cas9 editing. The HiBiT tag is an 11 amino acid tag created by Promega that associates with LgBiT protein to form the NanoLuc® tag on the C-terminus of PARP14. Clones were isolated and confirmed for the HiBiT tag via Sanger sequencing.
Degradation of PARP14 protein was assessed by measuring the luminescence of the HiBiT tag associating with the LgBiT protein as a proxy for the PARP14 protein.
Jurkat cells were diluted to 250,000 cells per mL and then added to assay plate (Corning 3574) using a Multidrop (Thermo Fisher) to add 20 μL per well of the 384 well plate, resulting in 5,000 cells per well. 20 nL of a dose response curve diluted in DMSO of each test compound was added to the cell plate using a Mosquito (TTP Labtech) and the plate was incubated at 37° C. for 2 or 24 hours. Assay plate was brought to room temperature then 5 μL per well of Live Cell Substrate (Promega) was added to the plate. Luminescence was measured on an Envision (Perkin Elmer).
The average DMSO was calculated from 32 wells containing 0.1% DMSO only in columns 12 and 24 of the assay plate. The % of DMSO values were calculated as described below: […]
The % of DMSO values were plotted as a function of compound concentration and the following 4-parameter fit was applied to derive the DC50 values:
where top, bottom, and Hill Coefficient are allowed to float. Y is the % of DMSO and X is the compound concentration.
DC50 data for the Example compounds is provided below in Table 2 (“+” is ≤0.03 μM; “++” is ≥0.03 μM).

O=C1CCC(Nc2ccc(N3CC(N4CCN(CCOc5cc(F)c6c(=O)[nH]c(CSC7CCOCC7)nc6c5)CC4)C3)cc2)C(=O)N1 (centres unmarked) [Example 130, 3-((4-(3-(4-(2-((5-fluoro-4-oxo-2-(((tetrahydro-2H-pyran-4-yl)thio)methyl)-3,4-dihydroquinazolin-7-yl)oxy)ethyl)piperazin-1-yl)azetidin-1-yl)phenyl)amino)piperidine-2,6-dione] was tested, and the DC50 was less than 30 nM.

For [2H]C1([2H])N(CCN2CCC(COc3cc(F)c4c(=O)[nH]c(CSC5CCOCC5)nc4c3)CC2)C([2H])([2H])C([2H])([2H])N(c2ccc(NC3CCC(=O)NC3=O)cc2)C1([2H])[2H] (centres unmarked) [Example 131, 3-((4-(4-(2-(4-(((5-fluoro-4-oxo-2-(((tetrahydro-2H-pyran-4-yl)thio)methyl)-3,4-dihydroquinazolin-7-yl)oxy)methyl)piperidin-1-yl)ethyl)piperazin-1-yl-2,2,3,3,5,5,6,6-d8)phenyl)amino)piperidine-2,6-dione], the DC50 was less than 30 nM.

O=C1CCC(Nc2ccc(-c3ccc(CCN4CCC(COc5cc(F)c6c(=O)[nH]c(CSC7CCOCC7)nc6c5)CC4)cn3)cc2)C(=O)N1 (centres unmarked) [Example 132] showed a DC50 of less than 30 nM.

O=C1CCC(Nc2ccc(-c3ccc(CCN4CCC(COc5cc(F)c6c(=O)[nH]c(CSC7CCOCC7)nc6c5)CC4)nc3)cc2)C(=O)N1 (centres unmarked) [Example 133] showed a DC50 of less than 30 nM.

O=C1CCC(NC(=O)C23CC(N4CCN(CCN5CCC(COc6cc(F)c7c(=O)[nH]c(CSC8CCOCC8)nc7c6)CC5)CC4)(C2)C3)C(=O)N1 (centres unmarked) [Example 134, N-(2,6-dioxopiperidin-3-yl)-3-(4-(2-(4-(((5-fluoro-4-oxo-2-(((tetrahydro-2H-pyran-4-yl)thio)methyl)-3,4-dihydroquinazolin-7-yl)oxy)methyl)piperidin-1-yl)ethyl)piperazin-1-yl)bicyclo[1.1.1]pentane-1-carboxamide] gave a DC50 of less than 30 nM.

O=C1CCC(Nc2ccc(N3CCC(N4CCC(COc5cc(F)c6c(=O)[nH]c(COC7CCOCC7)nc6c5)CC4)CC3)c(F)c2)C(=O)N1 (centres unmarked) [Example 135, 3-((3-fluoro-4-(4-(((5-fluoro-4-oxo-2-(((tetrahydro-2H-pyran-4-yl)oxy)methyl)-3,4-dihydroquinazolin-7-yl)oxy)methyl)-[1,4′-bipiperidin]-1′-yl)phenyl)amino)piperidine-2,6-dione formate] was tested, and the DC50 was less than 30 nM.

With O=C1CCC(Nc2ccc(N3CCC(N4CC(N5CCC(COc6cc(F)c7c(=O)[nH]c(COC8CCOCC8)nc7c6)CC5)C4)CC3)c(F)c2)C(=O)N1 (centres unmarked) [Example 136, 3-((3-fluoro-4-(4-(3-(4-(((5-fluoro-4-oxo-2-(((tetrahydro-2H-pyran-4-yl)oxy)methyl)-3,4-dihydroquinazolin-7-yl)oxy)methyl)piperidin-1-yl)azetidin-1-yl)piperidin-1-yl)phenyl)amino)piperidine-2,6-dione] the DC50 was less than 30 nM.

For O=C1CCC(Nc2ccc(N3CCN(CCN4CCC(COc5cc(F)c6c(=O)[nH]c(CSC7CCOCC7)nc6c5)CC4)CC3)c(Cl)c2)C(=O)N1 (centres unmarked) [Example 137], the DC50 was less than 30 nM.

O=C1CCC(Nc2ccc(N3CC4(CCC(N5CCC(COc6cc(F)c7c(=O)[nH]c(CSC8CCOCC8)nc7c6)CC5)CC4)C3)cc2)C(=O)N1 (centres unmarked) [Example 138] showed a DC50 of less than 30 nM.

Work on COc1cc(N2CCC(N3CC(N4CCC(COc5cc(F)c6c(=O)[nH]c(CSC7CCOCC7)nc6c5)CC4)C3)CC2)c(F)cc1NC1CCC(=O)NC1=O (centres unmarked) [Example 139] yielded a DC50 of less than 30 nM.

Work on COc1cc(N2CCN(CCN3CCC(COc4cc(F)c5c(=O)[nH]c(CSC6CCOCC6)nc5c4)CC3)CC2)c(F)cc1NC1CCC(=O)NC1=O (centres unmarked) [Example 140] yielded a DC50 of less than 30 nM.

O=C1CCC(Nc2cc(F)c(N3CCN(CCN4CCC(COc5cc(F)c6c(=O)[nH]c(CSC7CCOCC7)nc6c5)CC4)CC3)cc2F)C(=O)N1 (centres unmarked) [Example 141] gave a DC50 of less than 30 nM.

In the case of O=C1CCC(Nc2ccc(N3CCC(N4CC(N5CCC(COc6cc(F)c7c(=O)[nH]c(CSC8CCOCC8)nc7c6)CC5)C4)CC3)c(Cl)c2)C(=O)N1 (centres unmarked) [Example 142], the DC50 is reported as less than 30 nM.

O=C1CCC(Nc2ccc(N3CCC4(CC3)CC(N3CCC(COc5cc(F)c6c(=O)[nH]c(CSC7CCOCC7)nc6c5)CC3)C4)c(F)c2)C(=O)N1 (centres unmarked) [Example 143, 3-((3-fluoro-4-(2-(4-(((5-fluoro-4-oxo-2-(((tetrahydro-2H-pyran-4-yl)thio)methyl)-3,4-dihydroquinazolin-7-yl)oxy)methyl)piperidin-1-yl)-7-azaspiro[3.5]nonan-7-yl)phenyl)amino)piperidine-2,6-dione] gave a DC50 of less than 30 nM.

For O=C1CCC(Nc2ccc(N3CCC(CN4CCC(COc5cc(F)c6c(=O)[nH]c(CSC7CCOCC7)nc6c5)CC4)CC3)c(F)c2)C(=O)N1 (centres unmarked) [Example 144, 3-((3-fluoro-4-(4-((4-(((5-fluoro-4-oxo-2-(((tetrahydro-2H-pyran-4-yl)thio)methyl)-3,4-dihydroquinazolin-7-yl)oxy)methyl)piperidin-1-yl)methyl)piperidin-1-yl)phenyl)amino)piperidine-2,6-dione], the DC50 was less than 30 nM.

Molecule O=C1CCC(Nc2ccc(N3CC(N4CCC(N5CCC(COc6cc(F)c7c(=O)[nH]c(CSC8CCOCC8)nc7c6)CC5)CC4)C3)c(F)c2)C(=O)N1 (centres unmarked) [Example 145] has a DC50 of less than 30 nM.

O=C1CCC(Nc2ccc(N3CCC(N4CC(N5CCC(COc6cc(F)c7c(=O)[nH]c(CCC8CCOCC8)nc7c6)CC5)C4)CC3)c(F)c2)C(=O)N1 (centres unmarked) [Example 146, 3-((3-fluoro-4-(4-(3-(4-(((5-fluoro-4-oxo-2-(2-(tetrahydro-2H-pyran-4-yl)ethyl)-3,4-dihydroquinazolin-7-yl)oxy)methyl)piperidin-1-yl)azetidin-1-yl)piperidin-1-yl)phenyl)amino)piperidine-2,6-dione formate] gave a DC50 of less than 30 nM.

For CN(c1ccc(NC2CCC(=O)NC2=O)cc1F)C1CC(CN2CCC(COc3cc(F)c4c(=O)[nH]c(CSC5CCOCC5)nc4c3)CC2)C1 (centres unmarked) [Example 147, 3-((3-fluoro-4-((3-((4-(((5-fluoro-4-oxo-2-(((tetrahydro-2H-pyran-4-yl)thio)methyl)-3,4-dihydroquinazolin-7-yl)oxy)methyl)piperidin-1-yl)methyl)cyclobutyl)(methyl)amino)phenyl)amino)piperidine-2,6-dione], the DC50 was less than 30 nM.

For O=C1CCC(Nc2ccc(N3CC(N4CC(N5CCC(COc6cc(F)c7c(=O)[nH]c(CSC8CCOCC8)nc7c6)CC5)C4)C3)c(F)c2)C(=O)N1 (centres unmarked) [Example 148, 3-((3-fluoro-4-(3-(4-(((5-fluoro-4-oxo-2-(((tetrahydro-2H-pyran-4-yl)thio)methyl)-3,4-dihydroquinazolin-7-yl)oxy)methyl)piperidin-1-yl)-[1,3′-biazetidin]-1′-yl)phenyl)amino)piperidine-2,6-dione formate], the DC50 was less than 30 nM.

O=C1CCC(NC(=O)c2ccc(N3CCC(N4CCC(COc5cc(F)c6c(=O)[nH]c(CSC7CCOCC7)nc6c5)CC4)CC3)cc2F)C(=O)N1 (centres unmarked) [Example 149, N-(2,6-dioxopiperidin-3-yl)-2-fluoro-4-(4-(((5-fluoro-4-oxo-2-(((tetrahydro-2H-pyran-4-yl)thio)methyl)-3,4-dihydroquinazolin-7-yl)oxy)methyl)-[1,4′-bipiperidin]-1′-yl)benzamide] gave a DC50 of less than 30 nM.

Molecule O=C1CCC(Nc2ccc(NC3CC(CN4CCC(COc5cc(F)c6c(=O)[nH]c(CSC7CCOCC7)nc6c5)CC4)C3)c(F)c2)C(=O)N1 (centres unmarked) [Example 150, 3-((3-fluoro-4-((3-((4-(((5-fluoro-4-oxo-2-(((tetrahydro-2H-pyran-4-yl)thio)methyl)-3,4-dihydroquinazolin-7-yl)oxy)methyl)piperidin-1-yl)methyl)cyclobutyl)amino)phenyl)amino)piperidine-2,6-dione formate] has a DC50 of less than 30 nM.

Work on O=C1CCC(NC(=O)c2ccc(N3CCC(N4CC(N5CCC(COc6cc(F)c7c(=O)[nH]c(CSC8CCOCC8)nc7c6)CC5)C4)CC3)cc2F)C(=O)N1 (centres unmarked) [Example 151, N-(2,6-dioxopiperidin-3-yl)-2-fluoro-4-(4-(3-(4-(((5-fluoro-4-oxo-2-(((tetrahydro-2H-pyran-4-yl)thio)methyl)-3,4-dihydroquinazolin-7-yl)oxy)methyl)piperidin-1-yl)azetidin-1-yl)piperidin-1-yl)benzamide] yielded a DC50 of less than 30 nM.

For O=C1CCC(Nc2ccc(N3CCC(C(=O)N4CC(N5CCC(COc6cc(F)c7c(=O)[nH]c(CSC8CCOCC8)nc7c6)CC5)C4)CC3)c(F)c2)C(=O)N1 (centres unmarked) [Example 152, 3-((3-fluoro-4-(4-(3-(4-(((5-fluoro-4-oxo-2-(((tetrahydro-2H-pyran-4-yl)thio)methyl)-3,4-dihydroquinazolin-7-yl)oxy)methyl)piperidin-1-yl)azetidine-1-carbonyl)piperidin-1-yl)phenyl)amino)piperidine-2,6-dione formate], the DC50 was less than 30 nM.
